Results taken from patent US12329762B2, “Pharmaceutical preparation for improving absorption and postprandial hypoglycemic action of insulin” (Eli Lilly and Company, priority 2015, dated 2025).

How the values were obtained:
[1] = 8-hour euglycemic clamp, plasma lispro (pharmacokinetic profile) after sc lispro ± iloprost; format: in vivo, human; settings: OT2D subjects with A1c>8%, sc lispro 10 or 30 U with vs without 1 nmol iloprost
Text: Euglycemic clamp. Subjects were admitted to the Sherbrooke University Hospital Clinical Research Center (CRC) at 8 PM the evening prior to each study. An i.v. antecubital cannula was installed to allow venous sampling for immediate whole blood glucose level measurements by a glucose analyzer (FreeStlyle Lite Glucometer, Abbott Diabetes Care Inc.) at 30-min intervals until glycemic target is reached and at 2-hour intervals thereafter. A second contralateral cannula was installed for continuous i.v. administration of regular insulin and glucose, as needed, and plasma glucose has been brought progressively into the normal target range of 5-7 mmol/L overnight and then kept at this level. Experiments started around 8 AM. Patients have been kept fasting (drinking water permitted) during the entire 8-hour clamp study. […] Plasma glucose levels were monitored every 5 min for the first 4 hours and at 10-min intervals thereafter. […] Subjects were allowed to leave when glucose levels were stabilised over 6 mmol/L. Plasma lispro was measured by an ultra-specific radioimmunoassay (Linco Research Inc.) Detection limit is 18 pmol/L, intra-assay CV is 2.5% in our hands (Gagnon-Auger M, et al. Diabetes Care 2010;33(12):2502-7). […]
The fractional plasmatic lispro AUCs were calculated by the trapezoidal method. […]

[2] = 8-hour euglycemic clamp, glucose infusion rate (pharmacodynamic profile) after sc lispro ± iloprost; format: in vivo, human; settings: OT2D subjects with A1c>8%, sc lispro 10 or 30 U with vs without 1 nmol iloprost
Text: Euglycemic clamp. Subjects were admitted to the Sherbrooke University Hospital Clinical Research Center (CRC) at 8 PM the evening prior to each study. An i.v. antecubital cannula was installed to allow venous sampling for immediate whole blood glucose level measurements by a glucose analyzer ([…] Glucometer, Abbott Diabetes Care Inc.) at 30-min intervals until glycemic target is reached and at 2-hour intervals thereafter. A second contralateral cannula was installed for continuous i.v. administration of regular insulin and glucose, as needed, and plasma glucose has been brought progressively into the normal target range of 5-7 mmol/L overnight and then kept at this level. Experiments started around 8 AM. Patients have been kept fasting (drinking water permitted) during the entire 8-hour clamp study. […] Plasma glucose levels were monitored every 5 min for the first 4 hours and at 10-min intervals thereafter. […] Subjects were allowed to leave when glucose levels were stabilised over 6 mmol/L. Plasma lispro was measured by an ultra-specific radioimmunoassay (Linco Research Inc.) Detection limit is 18 pmol/L, intra-assay CV is 2.5% in our hands (Gagnon-Auger M, et al. Diabetes Care 2010;33(12):2502-7). […] The fractional plasmatic lispro AUCs were calculated by the trapezoidal method. […]

Compound: CC#CCC(C)[C@H](O)/C=C/[C@@H]1[C@H]2C/C(=C/CCCC(=O)O)C[C@H]2C[C@H]1O (stereo partly shown) [iloprost]
- maximal plasma lispro concentrations ([1]; FIG. 5): rapidely increased
- lispro absorption (fractional AUCs of plasmatic lispro, 10 to 40 min) ([1]; FIG. 7): accelerated
- maximal glucose infusion rates ([2]; FIG. 8): rapidely increased
- hypoglycemic effect (early total glucose infusion, 30 to 60 min) ([2]; FIG. 9): accelerated
